58 compounds from paper PMC6136712, “Ex vivo drug sensitivity testing as a means for drug repurposing in esophageal adenocarcinoma” (PLoS ONE, 2018) can be followed below.

The test system of the assay is normal esophageal epithelium cell line EACN42. Description: FDA library drug sensitivity testing (CellTiter-Glo, 72 h), normal control cells. The format is cell-based, human. On the set-up: key to DSS: modified drug sensitivity score (DSSmod) from dose-response curve fit. As for the experimental part: The normal esophageal epithelium cell line EACN42 was established in the Capobianco laboratory. The cell lines was derived from human normal epithelium and immortalized using HPV E6-E7.
Drug sensitivity testing (DST) was performed as described previously. […] Individual drugs were dissolved in 100% DMSO and tested in duplicates starting at a maximal test concentration of 10μM then over a 20,000-fold concentration range to generate dose response curves. Wells with assay buffer containing DMSO served as negative controls. 1000 exponentially growing cells were seeded per well in 384-well micro-titer plates and incubated in the presence of compounds in a humidified environment at 37°C and 5% CO2. After 72 hours of treatment, cell viability was assessed by measuring ATP levels via bioluminescence (CellTiter-Glo, Promega) according to manufactures recommendations. Interpretation of curve parameters was performed according to the modified drug sensitivity scoring (DSSmod) function developed by Swords et al. […] Given in this way, the sDSSmod incorporated information on each drug’s potency, efficacy, effect range and therapeutic index, making it possible to prioritize compounds over multiple parameters using a single numerical metric. […] All calculations and scoring routines are implemented in MatLab and additional curve fitting and statistical analyses are performed in GraphPad prism.

The mark [1] stands for this setting: drug sensitivity score, EACN42 normal esophageal cells, 72 h.
Setting [2] is: Homo sapiens, 72 h, EACN42 normal esophageal cells, cell viability (ATP), max test concentration 10μM.
[3] abbreviates: EACN42 normal esophageal cells, 72 h, cell viability (ATP), max test concentration 10μM.
Setting [4] is: EACN42 normal esophageal cells, 72 h.

Each structure is given as a SMILES string. pEC50: −log10 of the molar value. Structures can show the parent of a compound that is named as a salt. Bounds are passed on as bounds.

Turning to `CC1=C(/C=C/C(C)=C/C=C/C(C)=C/C(=O)O)C(C)(C)CCC1` [Tretinoin], the DSS under setting [1] worked out at 0.

One may read the pEC50 as the EC50 on a negative log10 scale, so that one unit is a factor of ten. Consider `Nc1ncn([C@H]2C[C@H](O)[C@@H](CO)O2)c(=O)n1` [Decitabine], for which the pEC50 (Homo sapiens; EACN42 normal esophageal cells, 72 h, cell viability (ATP), max test concentration 10μM) was 6.77. The compound also had a DSS under setting [1] of 0.

Turning to `NC(=O)c1ncn([C@@H]2O[C@H](CO)[C@@H](O)[C@H]2O)c1O` [Mizoribine], the pEC50 under setting [2] was 8.22. The DSS under setting [1] amounted to 0.

With `O=C(O)c1nn(Cc2ccc(Cl)cc2Cl)c2ccccc12` [Lonidamine], the DSS under setting [1] is listed as 0.

The compound `CN[C@H]1C[C@@H](N)[C@H](O)[C@@H](O[C@@H]2O[C@H](CO)[C@H](O)[C@@H]3OC4(O[C@H]23)O[C@H]([C@@H](N)CO)[C@H](O)[C@H](O)[C@H]4O)[C@@H]1O` (some centres unmarked) [Hygromycin B] gave a pEC50 under setting [3] of 5.11. Besides, under setting [1], the DSS came to 3.8.

Compound `Cc1ccc(NC(=O)c2ccc(CN3CCN(C)CC3)cc2)cc1Nc1nc(-c2cccnc2)cs1` [Masitinib] displayed a DSS under setting [1] of 0.

As to `CC(=O)Oc1ccccc1C(=O)O` [Aspirin], under setting [4], the “treatment response in words” value was “low or no activity”. Under setting [1], the DSS is 0.

For `CC1=NN(c2ccc(C)c(C)c2)C(=O)/C1=N\Nc1cccc(-c2cccc(C(=O)O)c2)c1O` [Eltrombopag], the pEC50 under setting [2] was 5.33. This compound displayed a DSS under setting [1] of 0.32.

`C=CC[C@@H]1/C=C(\C)C[C@H](C)C[C@H](OC)[C@H]2O[C@@](O)(C(=O)C(=O)N3CCCC[C@H]3C(=O)O[C@H](/C(C)=C/[C@@H]3CC[C@@H](O)[C@H](OC)C3)[C@H](C)[C@@H](O)CC1=O)[C@H](C)C[C@@H]2OC` [Tacrolimus]: under setting [1], the DSS worked out at 0.

Under setting [1], `O=C(O)C1=CO[C@@H](O[C@@H]2O[C@H](CO)[C@@H](O)[C@H](O)[C@H]2O)[C@@H]2C(CO)=CC[C@H]12` [Geniposidic acid] showed a DSS of 0.

Turning to `Cn1nnc2c(C(N)=O)ncn2c1=O` [Methazolastone], under setting [1], the DSS worked out at 0.

Under setting [1], `CCC1(c2ccc(N)cc2)CCC(=O)NC1=O` (centres unmarked) [Aminoglutethimide] displayed a DSS of 0.

In turn, `CN(CCOc1ccc(CC2SC(=O)NC2=O)cc1)c1ccccn1` (centres unmarked) [Rosiglitazone] returned a DSS under setting [1] of 0.

The compound `CCOC(=O)C1=C[C@]2(CC)CCCN3CCc4c(n1c1ccccc41)[C@@H]32` [Vinpocetine] showed a DSS under setting [1] of 0.

Take `C=C1C[C@@H]2[C@H](CC[C@]3(C)C(=O)CC[C@@H]23)[C@@]2(C)C=CC(=O)C=C12` [Exemestane]: the DSS (72 h) was determined as 0.

With `CO[C@H]1O[C@@H]2O[C@@]3(C)CC[C@H]4[C@H](C)CC[C@@H]([C@H]1C)[C@@]24OO3` [Artemether], the DSS under setting [1] came to 0.

Under setting [1], `CC(=O)OCC(=O)[C@@]1(O)[C@H](C)C[C@H]2[C@@H]3CCC4=CC(=O)C=C[C@]4(C)[C@@]3(F)[C@@H](O)C[C@@]21C` [Dexamethasone acetate] showed a DSS of 0.

`O=C1[O][Pt]2([NH][C@@H]3CCCC[C@H]3[NH]2)[O]C1=O` [Oxaliplatin]: under setting [4], the “treatment response in words” value was “minimal treatment effects”. The compound also showed a DSS under setting [1] of 0.06.

Under setting [2], `CNC(=O)c1cc(Oc2ccc(NC(=O)Nc3ccc(Cl)c(C(F)(F)F)c3)c(F)c2)ccn1` [Regorafenib] showed a pEC50 below 5.00. Further, the DSS under setting [1] is given as 1.85.

Compound `CCN[C@H]1C[C@H](C)S(=O)(=O)c2sc(S(N)(=O)=O)cc21` [Dorzolamide HCL] returned a DSS under setting [1] of 0.01.

Compound `CCOC(=O)[C@H](CCc1ccccc1)N[C@H]1CS[C@H](c2cccs2)CN(CC(=O)O)C1=O` [Temocapril HCl] had a DSS under setting [1] of 0.

`CC(=O)OCC(CCn1cnc2cnc(N)nc21)COC(C)=O` [Famciclovir] showed a pEC50 under setting [2] of 5.95. Moreover, the DSS under setting [1] is 0.

The compound `CCCC(CCC)C(=O)O` [Valproic acid sodium salt] gave a pEC50 under setting [2] of 5.70. The same compound gave a DSS under setting [1] of 0.

The compound `Nc1ncnc2[nH]cnc12` [Adenine] registered a DSS under setting [1] of 0.

`CC#CCn1c(N2CCC[C@@H](N)C2)nc2c1c(=O)n(Cc1nc(C)c3ccccc3n1)c(=O)n2C` [Linagliptin]: the negative logarithm of the EC50 (pEC50) under setting [2] is 6.42. For the same compound, the DSS under setting [1] worked out at 0.

`O=C(c1ccc(OCCN2CCCCC2)cc1)c1c(-c2ccc(O)cc2)sc2cc(O)ccc12` [Evista]: the DSS under setting [1] came to 0.

Consider `CCN1CCN(c2cc(-c3ccc(F)cc3)c3c(n2)CCCCCC3)CC1` [Blonanserin], for which, under setting [2], the pEC50 was 7.40. This compound also registered a DSS under setting [1] of 0.

`Cc1ccc(NC(=O)c2ccc(CN3CCN(C)CC3)cc2)cc1Nc1nccc(-c2cccnc2)n1` [Imatinib] returned a DSS under setting [1] of 0.

`CC1COc2c(N3CCN(C)CC3)c(F)cc3c(=O)c(C(=O)O)cn1c23` (centres unmarked) [Ofloxacin] yielded a DSS under setting [1] of 0.

Consider `CC(c1cc2ccccc2s1)N(O)C(N)=O` (centres unmarked) [Zileuton], for which, under setting [1], the DSS is 0.

For `C[C@@H]1C[C@H]2[C@@H]3CCC4=CC(=O)C=C[C@]4(C)[C@@]3(F)[C@@H](O)C[C@]2(C)[C@@]1(O)C(=O)CO` [Dexamethasone], the DSS under setting [1] came to 0.

`COc1ccc2c(c1OC)C(=O)O[C@@H]2[C@H]1c2c(cc3c(c2OC)OCO3)CCN1C` [Noscapine HCl]: the DSS under setting [1] turned out to be 0.

As for `CC(=O)O[C@]1(C(C)=O)CC[C@H]2[C@@H]3C=C(C)C4=CC(=O)CC[C@]4(C)[C@H]3CC[C@@]21C` [Megestrol Acetate], the DSS under setting [1] is 0.

Turning to `O=C1CCC(N2C(=O)c3ccccc3C2=O)C(=O)N1` (centres unmarked) [Thalidomide], the DSS under setting [1] is on record as 0.

`CC(=O)OCC(=O)[C@@]1(O)CC[C@H]2[C@@H]3CCC4=CC(=O)CC[C@]4(C)[C@H]3C(=O)C[C@@]21C` [Cortisone acetate] displayed a DSS under setting [1] of 0.

`Nc1ncnc2nc[nH]c12.Nc1ncnc2nc[nH]c12.O=S(=O)(O)O` [Adenine sulfate] had a pEC50 under setting [3] of 6.60. Under setting [1], this compound showed a DSS of 0.

As for `C[C@@]12C[C@@]3(O)O[C@@H](O1)[C@]1(COC(=O)c4ccccc4)[C@H]3C[C@@]12O[C@@H]1O[C@H](CO)[C@@H](O)[C@H](O)[C@H]1O` [Paeoniflorin], the DSS under setting [1] amounted to 0.

As to `CNC(=O)c1ccc(N2C(=S)N(c3ccc(C#N)c(C(F)(F)F)c3)C(=O)C2(C)C)cc1F` [Enzalutamide], the DSS under setting [1] is listed as 0.

Regarding `COc1nc(N)nc2c1ncn2[C@@H]1O[C@H](CO)[C@@H](O)[C@@H]1O` [Nelarabine], the DSS under setting [1] is given as 0.

`Cc1ccc(-c2cc(C(F)(F)F)nn2-c2ccc(S(N)(=O)=O)cc2)cc1` [Celecoxib] came in with a DSS under setting [1] of 0.

Compound `CCCCCOC(=O)Nc1nc(=O)n([C@@H]2O[C@H](C)[C@@H](O)[C@H]2O)cc1F` [Capecitabine] gave a pEC50 under setting [2] of 6.00. Besides, the DSS under setting [1] is recorded as 0.

`O=P1(NCCCl)OCCCN1CCCl` (centres unmarked) [Ifosfamide] came in with a DSS under setting [1] of 0.

`CN(N=O)C(=O)N[C@H]1C(O)O[C@H](CO)[C@@H](O)[C@@H]1O` (mixture of isomers) [Streptozotocin] came in with a DSS under setting [1] of 0.

Consider `CC#C[C@]1(O)CC[C@H]2[C@@H]3CCC4=CC(=O)CCC4=C3[C@@H](c3ccc(N(C)C)cc3)C[C@@]21C` [Mifepristone], for which the DSS under setting [1] came out at 0.

Compound `C[C@]12CCC(=O)C=C1CC[C@@H]1[C@@H]2[C@@H](O)C[C@@]2(C)[C@H]1CC[C@]2(O)C(=O)CO` [Hydrocortisone] yielded a DSS under setting [1] of 0.

For the compound `COc1cc(Nc2c(C#N)cnc3cc(OCCCN4CCN(C)CC4)c(OC)cc23)c(Cl)cc1Cl` [Bosutinib], under setting [1], the DSS is on record as 0.

Compound `CC/C(=C(/CC)c1ccc(O)cc1)c1ccc(O)cc1` [Diethylstilbestrol] returned a DSS under setting [1] of 0.

The compound `O=C1CN2Cc3c(ccc(Cl)c3Cl)N=C2N1` [Anagrelide HCl] had a pEC50 under setting [2] of 7.40. This compound displayed a DSS under setting [1] of 0.

`O=C(O)CCCN1CCC(O[C@@H](c2ccc(Cl)cc2)c2ccccn2)CC1.O=S(=O)(O)c1ccccc1` [Bepotastine Besilate] gave a DSS under setting [1] of 0.

In the case of `C[C@]12CC[C@@H]3c4ccc(O)cc4CC[C@H]3[C@@H]1CC[C@@H]2O` [Estradiol], under setting [1], the DSS turned out to be 0.

The compound `Nc1nnc(-c2cccc(Cl)c2Cl)c(N)n1` [Lamotrigine] registered a DSS under setting [1] of 0.

For the compound `Nc1cccc2c1C(=O)N(C1CCC(=O)NC1=O)C2=O` (centres unmarked) [Pomalidomide], the pEC50 under setting [2] was 9.80. Also, under setting [1], the DSS was determined as 0.

Turning to `CC(C)C(=O)Nc1ccc([N+](=O)[O-])c(C(F)(F)F)c1` [Flutamide], the DSS under setting [1] is reported as 0.

The compound `N#Cc1ccc(C(c2ccc(C#N)cc2)n2cncn2)cc1` [Letrozole] had a pEC50 under setting [2] of 7.22. The DSS under setting [1] is recorded as 0.

As to `Cl.Cn1c(CCCC(=O)O)nc2cc(N(CCCl)CCCl)ccc21` [Bendamustine HCL], under setting [1], the DSS came to 0.

In turn, `COc1c2ccoc2cc2oc(=O)ccc12` [Bergapten] showed a pEC50 under setting [2] of 7.30. Further, the DSS under setting [1] was determined as 0.

As for `N.N.O=C([O-])C1(C(=O)[O-])CCC1.[Pt+2]` [Carboplatin], under setting [4], the “treatment response in words” value is given as “minimal treatment effects”. Further, under setting [3], the pEC50 is 5.63. In addition, the DSS under setting [1] is recorded as 3.68.

In turn, `C[C@]12C=CC(=O)C=C1CC[C@@H]1[C@@H]2C(=O)C[C@@]2(C)[C@H]1CC[C@]2(O)C(=O)CO` [Prednisone] registered a DSS under setting [1] of 0.
